Bounds are passed on as bounds.

From patent US9951065B2 (Gilead Sciences, Inc., priority 2015, dated 2018) come the findings set out here.

One assay deals with T1, IDO1 (Homo sapiens, UniProt P14902).
T1 construct: HeLa cells were treated with a test compound in the presence of IFNγ, which induces IDO1 expression; host or cells: H1-HeLa cells, IDO1 induced with IFNγ
T1 sequence (P14902 whole entry): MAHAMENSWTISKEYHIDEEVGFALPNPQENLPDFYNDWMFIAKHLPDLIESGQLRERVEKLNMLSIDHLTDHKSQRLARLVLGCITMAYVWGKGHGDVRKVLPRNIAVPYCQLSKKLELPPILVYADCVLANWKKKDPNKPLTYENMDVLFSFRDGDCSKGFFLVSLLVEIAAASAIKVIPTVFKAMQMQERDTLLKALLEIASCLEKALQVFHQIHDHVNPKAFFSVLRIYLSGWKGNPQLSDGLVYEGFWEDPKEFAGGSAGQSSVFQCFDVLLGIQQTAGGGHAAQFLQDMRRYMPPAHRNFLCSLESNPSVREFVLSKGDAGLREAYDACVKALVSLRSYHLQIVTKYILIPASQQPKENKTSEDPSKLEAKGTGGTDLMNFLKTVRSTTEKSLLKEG
As to the kind of experiment: Cell-based (HeLa) assay for measurement of IDO1 inhibition (kynurenine levels in supernatant after IFNγ induction). As to conditions: HeLa cells, IFNγ-induced IDO1, kynurenine in supernatant after 48 hour incubation; geometric mean of a minimum of four determinations. The procedure, abridged: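 IDO1 activity is read as kynurenine released into the medium, detected with Ehrlich's reagent (p-dimethylaminobenzaldehyde) at 480 nm after TCA treatment. HeLa cells were exposed 48 h to compounds in 0.5% DMSO alongside IFNγ induction. Values normalized to no-IFNγ and IFNγ controls; four-parameter EC50 given as geometric mean of ≥4 determinations.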
The compound `CC(O)c1nc2nccc(/C(=N/O)Nc3ccc(F)c(Cl)c3)c2[nH]1` (stereo not shown) [Example 172, N-(3-Chloro-4-fluorophenyl)-N′-hydroxy-2-(1-hydroxyethyl)-1H-imidazo[4,5-b]pyridine-7-carboximidamide] had an EC50 of 3860 nM. In turn, `CN(C)CC(O)c1nc2nccc(/C(=N/O)Nc3ccc(F)c(Cl)c3)c2[nH]1` (stereo not shown) [Example 195, N-(3-Chloro-4-fluorophenyl)-2-(2-(dimethylamino)-1-hydroxyethyl)-N′-hydroxy-1H-imidazo[4,5-b]pyridine-7-carboximidamide] registered an EC50 of 1160 nM. Still for that read-out and setting: the result for `O/N=C(\Nc1ccc(F)c(Cl)c1)c1cc(F)c(F)c2nc[nH]c12` [Example 10, N-(3-chloro-4-fluorophenyl)-4,5-difluoro-N′-hydroxy-1H-benzo[d]imidazole-7-carboximidamide] reads 438 nM.

`CNCc1nc2c(F)c(F)cc(/C(=N/O)Nc3cccc(Cl)c3)c2[nH]1` [Example 30, N-(3-Chlorophenyl)-4,5-difluoro-N′-hydroxy-2-((methylamino)methyl)-1H-benzo[d]imidazole-7-carboximidamide] displayed an EC50 of 1110 nM. On the same count and under the same terms, with `O/N=C(\Nc1ccc(F)c(Cl)c1)c1ccnc2nc(NCCC3CCCCC3)[nH]c12` [Example 223, N-(3-chloro-4-fluorophenyl)-2-((2-cyclohexylethyl)amino)-N′-hydroxy-1H-imidazo[4,5-b]pyridine-7-carboximidamide] the figure was 2180 nM; with `CN(C)CCc1nc2nccc(/C(=N/O)Nc3ccc(F)c(Cl)c3)c2[nH]1` [Example 184, N-(3-Chloro-4-fluorophenyl)-2-(2-(dimethylamino)ethyl)-N′-hydroxy-1H-imidazo[4,5-b]pyridine-7-carboximidamide], 593 nM; with `CN(C)CCNc1nc2nccc(C(=NO)Nc3ccc(F)c(Cl)c3)c2[nH]1` [Example 215, N-(3-chloro-4-fluorophenyl)-2-((2-(dimethylamino)ethyl)amino)-N′-hydroxy-1H-imidazo[4,5-b]pyridine-7-carboximidamide], 1200 nM. The compound `Cn1cnc2c(/C(=N/O)Nc3ccc(F)c(Cl)c3)ccnc21` [Example 197, N-(3-Chloro-4-fluorophenyl)-N′-hydroxy-3-methyl-3H-imidazo[4,5-b]pyridine-7-carboximidamide] had an EC50 of 5460 nM. The same measure, in the same setting: the result for `CN(C)CCCNc1nc2c(F)c(F)cc(/C(=N/O)Nc3ccc(F)c(Cl)c3)c2[nH]1` [Example 39, N-(3-Chloro-4-fluorophenyl)-2-((3-(dimethylamino)propyl)amino)-4,5-difluoro-N′-hydroxy-1H-benzo[d]imidazole-7-carboximidamide] reads 473 nM; that for `NCc1nc2c(/C(=N/O)Nc3ccc(F)c(Cl)c3)cc(F)c(F)c2[nH]1` [Example 47, 2-(Aminomethyl)-N-(3-chloro-4-fluorophenyl)-4,5-difluoro-N′-hydroxy-1H-benzo[d]imidazole-7-carboximidamide], 1080 nM. The same measure, in the same setting: with `Cc1ccc(/C(=N/O)Nc2ccc(F)c(Cl)c2)c2[nH]cnc12` [Example 1, N-(3-Chloro-4-fluorophenyl)-N′-hydroxy-4-methyl-1H-benzo[d]imidazole-7-carboximidamide] the figure was 1220 nM; with `CN1CCCCC1CNc1nc2nccc(/C(=N/O)Nc3ccc(F)c(Cl)c3)c2[nH]1` (stereo not shown) [Example 202, N-(3-Chloro-4-fluorophenyl)-N′-hydroxy-2-[(1-methylpiperidin-2-yl)methylamino]-1H-imidazo[4,5-b]pyridine-7-carboximidamide], 2090 nM; with `CN(C)Cc1nc2c(F)c(F)cc(/C(=N/O)Nc3cccc(Cl)c3)c2[nH]1` [Example 26, N-(3-Chlorophenyl)-2-((dimethylamino)methyl)-4,5-difluoro-N′-hydroxy-1H-benzo[d]imidazole-7-carboximidamide], 1210 nM. Same read-out and setting: the result for `O/N=C(\Nc1ccc(F)c(Cl)c1)c1cc(F)c(F)c2[nH]c(CNCC3CC3)nc12` [Example 49, N-(3-Chloro-4-fluorophenyl)-2-(((cyclopropylmethyl)amino)methyl)-4,5-difluoro-N′-hydroxy-1H-benzo[d]imidazole-7-carboximidamide] reads 1060 nM. Regarding `O/N=C(\Nc1cc(F)cc(C(F)(F)F)c1)c1ccnc2nc[nH]c12` [Example 75, N-(3-Fluoro-5-(trifluoromethyl)phenyl)-N′-hydroxy-1H-imidazo[4,5-b]pyridine-7-carboximidamide], the midpoint of the response, the EC50, lay at 2110 nM. With `CN(C)CCNCc1nc2nccc(/C(=N/O)Nc3ccc(F)c(Cl)c3)c2[nH]1` [Example 136, N-(3-Chloro-4-fluorophenyl)-2-(((2-(dimethylamino)ethyl)amino)methyl)-N′-hydroxy-1H-imidazo[4,5-b]pyridine-7-carboximidamide], the concentration giving a half-maximal response (EC50) was found to be 6270 nM. On the same count and under the same terms, with `O/N=C(\Nc1ccc(F)c(Cl)c1)c1ccnc2nc(CNc3ncccn3)[nH]c12` [Example 182, N-(3-Chloro-4-fluorophenyl)-N′-hydroxy-2-((pyrimidin-2-ylamino)methyl)-1H-imidazo[4,5-b]pyridine-7-carboximidamide] the figure was 6400 nM; with `CCN(CC)CCc1nc2nccc(/C(=N/O)Nc3ccc(F)c(Cl)c3)c2[nH]1` [Example 185, N-(3-Chloro-4-fluorophenyl)-2-(2-(diethylamino)ethyl)-N′-hydroxy-1H-imidazo[4,5-b]pyridine-7-carboximidamide], 531 nM.

The same assay, now with this note: HeLa cells, IFNγ-induced IDO1, kynurenine in supernatant, 48 hour incubation; geometric mean of a minimum of four determinations.
For `CN(CCc1nc2nccc(/C(=N/O)Nc3ccc(F)c(Cl)c3)c2[nH]1)CC(C)(C)C` [Example 392, N-(3-chloro-4-fluorophenyl)-N′-hydroxy-2-(2-(methyl(neopentyl)amino)ethyl)-1H-imidazo[4,5-b]pyridine-7-carboximidamide], the EC50 was 1230 nM. The compound `CN1CCCCC1CCNc1nc2c(F)c(F)cc(/C(=N/O)Nc3ccc(F)c(Cl)c3)c2[nH]1` (stereo not shown) [Example 355, N-(3-chloro-4-fluorophenyl)-4,5-difluoro-N′-hydroxy-2-((2-(1-methylpiperidin-2-yl)ethyl)amino)-1H-benzo[d]imidazole-7-carboximidamide] registered an EC50 of 2020 nM. On the same count and under the same terms, the result for `CN(C)[C@@H]1CCCC[C@H]1Nc1nc2c(F)c(F)cc(/C(=N/O)Nc3ccc(F)c(Cl)c3)c2[nH]1` [Example 437, N-(3-chloro-4-fluorophenyl)-2-(((1R,2R)-2-(dimethylamino)cyclohexyl)amino)-4,5-difluoro-N′-hydroxy-1H-benzo[d]imidazole-7-carboximidamide] reads 998 nM. On the same count and under the same terms, the result for `CN1CC[C@H](Nc2nc3c(F)c(F)cc(/C(=N/O)Nc4ccc(F)c(Cl)c4)c3[nH]2)C1` [Example 447, (S)—N-(3-chloro-4-fluorophenyl)-4,5-difluoro-N′-hydroxy-2-((1-methylpyrrolidin-3-yl)amino)-1H-benzo[d]imidazole-7-carboximidamide] reads 325 nM; that for `O/N=C(\Nc1cccc(Br)c1)c1ccnc2nc(NCCN3CCOCC3)[nH]c12` [Example 306, N-(3-bromophenyl)-N′-hydroxy-2-((2-morpholinoethyl)amino)-1H-imidazo[4,5-b]pyridine-7-carboximidamide], 681 nM. For `CN(C(=NO)c1ccnc2nc[nH]c12)c1ccc(F)c(Cl)c1` [Example 369, N-(3-chloro-4-fluorophenyl)-N′-hydroxy-N-methyl-1H-imidazo[4,5-b]pyridine-7-carboximidamide], the EC50 is above 10000 nM. Same read-out and setting: the result for `CC(CN(C)C)Nc1nc2c(F)c(F)cc(/C(=N/O)Nc3ccc(F)c(Cl)c3)c2[nH]1` (stereo not shown) [Example 378, N-(3-chloro-4-fluorophenyl)-2-((1-(dimethylamino)propan-2-yl)amino)-4,5-difluoro-N′-hydroxy-1H-benzo[d]imidazole-7-carboximidamide] reads 1400 nM. Still for that read-out and setting: with `CC(C)N1CCCC(Nc2nc3c(F)c(F)cc(C(=NO)Nc4ccc(F)c(Cl)c4)c3[nH]2)C1` (stereo not shown) [Example 455, N-(3-chloro-4-fluorophenyl)-4,5-difluoro-N′-hydroxy-2-((1-isopropylpiperidin-3-yl)amino)-1H-benzo[d]imidazole-7-carboximidamide] the figure was 376 nM; with `CN(CCc1nc2nccc(/C(=N/O)Nc3ccc(F)c(Cl)c3)c2[nH]1)CC1CCOCC1` [Example 399, N-(3-chloro-4-fluorophenyl)-N′-hydroxy-2-(2-(methyl((tetrahydro-2H-pyran-4-yl)methyl)amino)ethyl)-1H-imidazo[4,5-b]pyridine-7-carboximidamide], 1330 nM. Still for that read-out and setting: with `CCN(CC)CCNc1nc2c(F)ccc(/C(=N/O)Nc3ccc(F)c(Cl)c3)c2[nH]1` [Example 375, N-(3-chloro-4-fluorophenyl)-2-((2-(diethylamino)ethyl)amino)-4-fluoro-N′-hydroxy-1H-benzo[d]imidazole-7-carboximidamide] the figure was 1190 nM; with `O/N=C(\Nc1ccc(F)c(Cl)c1)c1cc(F)c(F)c2nc(N[C@H]3CCCCNC3)[nH]c12` [Example 462, (S)-2-(azepan-3-ylamino)-N-(3-chloro-4-fluorophenyl)-4,5-difluoro-N′-hydroxy-1H-benzo[d]imidazole-7-carboximidamide], 1430 nM; with `CN(C)CCSc1nc2c(F)c(F)cc(/C(=N/O)Nc3ccc(F)c(Cl)c3)c2[nH]1` [Example 488, N-(3-chloro-4-fluorophenyl)-2-((2-(dimethylamino)ethyl)thio)-4,5-difluoro-N′-hydroxy-1H-benzo[d]imidazole-7-carboximidamide], 3010 nM. The compound `CN(CCc1nc2nccc(/C(=N/O)Nc3ccc(F)c(Cl)c3)c2[nH]1)C1CCCCC1` [Example 393, N-(3-chloro-4-fluorophenyl)-2-(2-(cyclohexyl(methyl)amino)ethyl)-N′-hydroxy-1H-imidazo[4,5-b]pyridine-7-carboximidamide] had an EC50 of 1790 nM.

As usually defined, the EC50 is the concentration that produces a half-maximal response. Lower therefore signals higher potency in that assay.
